Read-outs that look alike come from different tables or passages of the source.
Experiments:
Rabbit HINT1 = molecular target: T1, Rabbit HINT1 (Oryctolagus cuniculus, UniProt P80912); test: 31P NMR phosphoramidase assay of purified protein; assay type: biochemical; details: for Specific activity: 10 mM substrate, pH 7.2, 22° C.
T1 construct: made in house; host or cells: E. coli hinT deletion mutant
Method: (§1) Phosphoramidase activity in cell lysates was measured by the ^1H-decoupling mode of phosphorus-31 NMR spectroscopy (Varian VAC-300 spectrometer), which can clearly distinguish the substrate, AMP-NH2, and the product, adenosine 5′-monophosphate (AMP). NMR spectrometry is suitable for quantitation by integration of the area under the peak, which is proportional to the amount of nuclei present. The relative ratio of peak areas can be used to calculate the amount of turnover corrected based on a standard curve.
(§2) Cell lysates from E. coli Tuner(DE3)pLacI cells (Novagen) were obtained by treatment with lysozyme (1 mg/ml) and the DNA was precipitated by protamine sulfate followed by centrifugation to remove cell debris. The supernatant was dialyzed extensively against Buffer A (20 mM Tris (pH 7.0); 1 mM EDTA; 1 mM DTT, 0.01 mM PMSF) to remove cellular phosphates and nucleotides. Phosphate free cell lysates (0.75 mg total protein) were incubated with 5 mM AMP-NH2 in 0.5 ml reaction buffer (0.5 mM MgCl2, 20 mM HEPES (pH 7.2)) at 37° C. for intervals of 15 min, 30 min, and 12 h. The reactions were terminated by snap freezing in a dry ice/acetone slush bath and lyophilized for 5 h. The samples were then dissolved in NMR buffer (600 μL, 50 mM EDTA, 20 mM HEPES (pH 7.2), and 1 mM TMP (trimethylphosphate, internal standard)) and the insoluble portion was spun down by centrifugation at 12,500×g for 5 min. A ^31P NMR spectrum was then collected for the supernatant. For the low pH control experiment, 10 mM AMP-NH2 in reaction buffer (500 μL, pH 2.0) was incubated at 37° C. for 12 h and the 31p signal was detected under the same conditions.
(§3) Five recombinant purified proteins were tested with three commercial available compounds (Sigma): AMP-NH2, adenosine 5′-monophosphomorpholidate (AMP-Mor), and guanosine 5′-monophosphomorpholidate (GMP-Mor) (FIG. 1). The compounds (10 mM) were incubated with proteins (2.5-10 μg) in the reaction buffer (500 μL, 0.5 mM MgCl2, 20 mM HEPES (pH 7.2)) at 22° C. for intervals of 36 and 66 min. The reactions were quenched by adding 5 M NaOH (20 μL), followed by snap freezing in a dry ice/acetone slush bath, and lyophilized. The sample preparation for ^31P NMR measurement was as described above for the cell-lysate experiment except that the pH was adjusted by the addition of 12 μL 6 M HCl before NMR spectra were collected.

hHINT1 [1] = molecular target: T2, hHINT1 (Homo sapiens, UniProt P49773); test: 31P NMR phosphoramidase assay of purified protein; assay type: biochemical; details: for Specific activity: 10 mM substrate, pH 7.2, 22° C.
Method: as §1, §2, §3

Human Hint1-DHFR = molecular target: T3, Human Hint1-DHFR (UniProt P0ABQ4+P49773); test: 31P NMR phosphoramidase assay of purified protein; assay type: biochemical; details: 10 mM substrate, pH 7.2, 22° C.
T3 construct: made in house; host or cells: E. coli (following the procedure for the hinT plasmid)
Method: as §1, §2, §3

E. coli hinT [2] = molecular target: T4, E. coli hinT (Escherichia coli, UniProt P0ACE7); test: 31P NMR phosphoramidase assay of purified protein; assay type: biochemical; details: for Specific activity: 10 mM substrate, pH 7.2, 22° C.
T4 sequence (P0ACE7 1-119): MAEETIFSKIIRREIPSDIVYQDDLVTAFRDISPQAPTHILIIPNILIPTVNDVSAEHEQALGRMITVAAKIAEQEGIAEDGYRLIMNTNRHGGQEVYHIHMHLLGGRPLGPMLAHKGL
Method: as §1, §2, §3

E. coli hinT-DHFR = molecular target: T5, E. coli hinT-DHFR (Escherichia coli, UniProt P0ABQ4+P0ACE7); test: 31P NMR phosphoramidase assay of purified protein; assay type: biochemical; details: 10 mM substrate, pH 7.2, 22° C.
T5 construct: made in house; host or cells: E. coli Tuner(DE3)pLacI
Method: as §1, §2, §3

hHINT1 [3] = molecular target: T2, hHINT1; test: Phosphoramidase fluorescence assay; assay type: biochemical; details: for Kcat / Km: Table 5
Method: (§4) The fluorescence of tryptophan (ex, 280 nm, em 360 nm) can be quenched when covalently attached to a nucleoside monophosphate, and nucleoside phosphoramidates of D- and L-tryptophan and tryptamine are excellent fluorescent substrates for hHINT1. Typically, after measurement of initial substrate fluorescence, hHINT1 was added to the reaction solution (HEPES buffer, pH 7.2, 25° C.) and the change in fluorescence over 2 min was determined by converting the slope into μM of substrate hydrolyzed per μg of enzyme per min with a standard curve. […] Based on the generation of chimeric polypeptides between the hHINTI and the hinT of E. coli, the preference for D enantiomers by the human HINT1 polypeptide is likely conferred by the C-terminus amino acids (e.g., the C-terminus 5, 6, 5 7, 8, 9, 10, or 11 amino acids) of the hHINT1 enzyme. […] In addition, both D-tryptophan phosphoramidates of cytosine and uridine were substrates. Initial rates were determined 10 during the first 10-20% of the reaction for variable substrate concentrations. The Michaelis-Menten constants, kcat and Km, for selected nucleoside phosphosphoramidates have been determined. (Table 4). As observed in the initial screening assay, for phosphoramidates containing L-tryptophan, hHINT1 has a 7-fold greater preference for AMP phosphoramidates of L-tryptophan than GMP.

E. coli hinT [4] = molecular target: T4, E. coli hinT; test: Phosphoramidase fluorescence assay; assay type: biochemical; details: Table 5
Description: as §4, with “hHINT1.” for “hHINT1. Typically, after measurement of initial substrate fluorescence, hHINT1 was added to the reaction solution (HEPES buffer, pH 7.2, 25° C.) and the change in fluorescence over 2 min was determined by converting the slope into μM of substrate hydrolyzed per μg of enzyme per min with a standard curve.”, “(Table 4).” left out
In addition, the Michaelis-Menten constants, kcat and Km, for selected nucleoside phosphosphoramidates were determined for both human Hint1 and E. coli hinT (Table 5).

hHINT1 [5] = molecular target: T2, hHINT1; details: literature (J. Biol. Chem. 2004, 279, 18711; 2002, 277, 10852); cited from earlier work
hHINT1 [6] = molecular target: T2, hHINT1; test: Catalytic activity (velocity) of cloned, purified phosphoramidase with AMPNH2; assay type: biochemical
Description: The enzyme responsible for hydrolysis of AZT amino acid phosphoramidates was cloned and characterized. After construction of a cDNA library from peripheral blood mononuclear cells (PBMCs) in T7Select10-3b phage, the phage display technique was employed to isolate the enzyme by affinity chromatography. After three rounds of phage selection and ampilification with an affinity column constructed from the L-tryptophan carbamate, DNA from ten selected plaques was amplified by PCR and sequenced. […] Hint1 is a member of the HIT protein superfamily, which consists of a recently identified adenosine 5′-monophosphoramide hydrolases from rabbit and yeast.
Velocity of the enzymes was determined at pH 7.2 at room temperature in the presence of 10 mM AMPNH2.

[7] = FIG. 5 substrate preference screen

Molecule | Kcat (hHINT1 [3]) | Km (hHINT1 [3]) | Kcat (E. coli hinT [4]) | Km (E. coli hinT [4]) | further results
Nc1ncnc2c1ncn2[C@@H]1O[C@H](COP(=O)(O)N2CCOCC2)[C@@H](O)[C@H]1O [AMP-Mor, adenosine 5′-monophosphomorpholidate] | – | – | – | – | Specific activity (Rabbit HINT1): 26.6 ± 0.6 nmol nmol^−1 min^−1; Specific activity (hHINT1 [1]): 45.0 ± 0 nmol nmol^−1 min^−1; Specific activity (Human Hint1-DHFR): 43.4 ± 4.0 nmol nmol^−1 min^−1; Specific activity (E. coli hinT [2]): 360 ± 1 nmol nmol^−1 min^−1; Specific activity (E. coli hinT-DHFR): 411 ± 4 nmol nmol^−1 min^−1
Nc1ncnc2c1ncn2[C@@H]1O[C@H](COP(=O)(O)NCCc2c[nH]c3ccccc23)[C@@H](O)[C@H]1O [AMP-Tryptamine] | 2.05 ± 0.27 s⁻¹ | 0.25 ± 0.05 µM | 4.07 ± 0.11 s⁻¹ | 5.03 ± 0.21 µM | –
Nc1ncnc2c1ncn2[C@@H]1O[C@H](COP(=O)(O)NCCCC[C@H](N)C(=O)O)[C@@H](O)[C@H]1O [AMP-lysine] | – | – | – | – | Kcat (hHINT1 [5]): 0.234 ± 0.011 s⁻¹; Km (hHINT1 [5]): 0.472 ± 0.057 µM
Nc1ncnc2c1ncn2[C@@H]1O[C@H](COP(=O)(O)NCCc2c[nH]c3ccccc23)[C@@H](O)[C@@H]1O [Ara-AMP-Tryptamine] | 0.85 ± 0.1 s⁻¹ | 0.79 ± 0.11 µM | 0.95 ± 0.17 s⁻¹ | 34.6 ± 5.64 µM | –
Nc1nc2c(ncn2C2OC(COP(=O)(O)NC(Cc3c[nH]c4ccccc34)C(=O)O)C(O)C2O)c(=O)[nH]1 [GMP D-tryptophan phosphoramidate, guanosine monophosphate (GMP) D-tryptophan phosphoramidate] | – | – | – | – | Activity relative to 7-benzyl guanosine monophosphate (7-Bn GMP) (hHINT1 [3]; [7]): approximately 7 fold; Activity relative to GMP L-tryptophan (hHINT1 [3]; [7]): nearly identical
COC(=O)[C@@H](Cc1c[nH]c2ccccc12)NP(=O)(O)OC[C@H]1O[C@@H](n2cnc3c(=O)[nH]c(N)nc32)[C@H](O)[C@@H]1O [GMP-D-TrpCOOMe] | 0.29 ± 0.02 s⁻¹ | 3.27 ± 0.58 µM | 1.75 ± 0.05 s⁻¹ | 21.3 ± 1.21 µM | –
Nc1nc2c(ncn2[C@@H]2O[C@H](COP(=O)(O)N3CCOCC3)[C@@H](O)[C@H]2O)c(=O)[nH]1 [GMP-Mor, guanosine 5′-monophosphomorpholidate] | – | – | – | – | Preference for GMP-Mor over AMP-Mor (Rabbit HINT1): 2 fold; Specific activity (Rabbit HINT1): 48.6 ± 0.4 nmol nmol^−1 min^−1; Preference for GMP-Mor over AMP-Mor (hHINT1 [1]): 2 fold; Specific activity (hHINT1 [1]): 78.7 ± 1.3 nmol nmol^−1 min^−1; Specific activity (Human Hint1-DHFR): 87.2 ± 11.8 nmol nmol^−1 min^−1; Preference for GMP-Mor over AMP-Mor (E. coli hinT [2]): 2 fold; Specific activity (E. coli hinT [2]): 669 ± 1 nmol nmol^−1 min^−1; Specific activity (E. coli hinT-DHFR): 675 ± 17 nmol nmol^−1 min^−1
Nc1nc2c(ncn2[C@@H]2O[C@H](COP(=O)(O)NCCc3c[nH]c4ccccc34)[C@@H](O)[C@H]2O)c(=O)[nH]1 [GMP-Tryptamine] | 2.09 ± 0.16 s⁻¹ | 0.243 ± 0.03 µM | 3.45 ± 0.3 s⁻¹ | 5.34 ± 0.69 µM | –
O=c1[nH]cnc2c1ncn2[C@@H]1O[C@H](COP(=O)(O)NCCc2c[nH]c3ccccc23)[C@@H](O)[C@H]1O [IMP-Tryptamine] | 2.53 ± 0.09 s⁻¹ | 0.71 ± 0.03 µM | 3.89 ± 0.18 s⁻¹ | 13.7 ± 0.67 µM | –
Cc1cn([C@H]2C[C@H](O)[C@@H](COP(=O)(O)NCCc3c[nH]c4ccccc34)O2)c(=O)[nH]c1=O [TMP-Tryptamine] | 0.044 ± 0.01 s⁻¹ | 26.1 ± 2.78 µM | 0.014 ± 0.001 s⁻¹ | 35.9 ± 2.27 µM | –
O=c1ccn([C@@H]2O[C@H](COP(=O)(O)NCCc3c[nH]c4ccccc34)[C@@H](O)[C@H]2O)c(=O)[nH]1 [UMP-Tryptamine] | 1.85 ± 0.29 s⁻¹ | 1.42 ± 0.25 µM | 1.63 ± 0.22 s⁻¹ | 25.1 ± 3.56 µM | –
AZT tryptophan phosphoramidate | – | – | – | – | Hydrolysis by over-expressed, purified human Hint1 (hHINT1 [6]): to a lesser extent

— patent US20060014193A1, “Nucleoside phosphoramidates and nucleoside phosphoramidases” (priority 2004, published 2006)
